The values below come from patent publication US7270820B2, “CD4+ T-lymphocyte-specific hepatitis C virus epitopes” (Immusystems GmbH, priority 2002, dated 2007).

In one test the test system is fresh peripheral blood mononuclear cells (PBMC) / HCV-specific CD4+ T-lymphocytes. Kind of test: Lymphocyte proliferation assay (3H-thymidine incorporation) of PBMC stimulated with HCV peptides. The class given is cell-based, human (patients with acute hepatitis C). The conditions noted are these: of 16 independent tests. An excerpt:
To solve the task, a unique patient collective was identified, namely patients with acute hepatitis C who reach a lasting or at least temporary virus elimination in over 50% of cases. In order to test all possible CD4+ T-cell epitopes, the whole virus was covered with overlapping synthetic peptides from 15 to 20 amino acids long. A standardised lymphocyte proliferation assay was used as the test system. In order to determine both the degree of conservation between various virus sub-types and also the binding promiscuity as regards the relevant genetic background of the patients, a formula was defined based on the frequency of detection of an epitope and the strength of the immune reaction in question.
The stimulation index (SI) is normally calculated from the raw data of a proliferation assay and represents the multiplication factor of the measured sample in comparison with the control. An SI of 3 is regarded as significant.
A special patient collective was chosen and examined for HCV specific CD4+ T-cell epitopes relevant for the healing of the disease. The patient collective, namely patients with acute hepatitis C, is difficult to identify, since, on the one hand, they occur with a frequency of approx. 1:100,000 in the German population and, on the other hand, only T-lymphocytes were tested in the acute phase of the disease. This means a considerable limitation in the number of usable samples. Finally, within this patient collective, only patients were considered who were able to clear the virus spontaneously or to control it temporarily (this is only approx. 60% of the patients with acute hepatitis C), since only here has the immune system successfully taken action against the virus.
As the test system, the so-called “proliferation assay” was carried out according to the following protocol: After density gradient centrifugation on Ficoll gradients of heparinised blood, the fresh peripheral blood mononuclear cells (PBMC) were isolated and suspended in a culture medium (RPMI1640, Gibco). 50 μl of this cell suspension (concentration of 1×10^6 cells per ml) were placed on sterile 96-well culture plates. The cells were stimulated by the addition of the peptides. The final concentration of the peptides was 10 μg/ml. The cell culture plates were cultivated over 5 days at 37° C. and 5% CO2, then mixed with ^3H-thymidine and the incorporation of the radioactive ^3H was measured as a measure of the cell stimulation.
In our studies, only peptide reactions were regarded as significant whose stimulation index (SI) was greater than 3 (3× higher compared with the controls, or the irrelevant peptides).
The impact factor (IF) is based on a points system which not only uses the frequency of relevant reactions, i.e. stimulation index (SI) greater than 3, as normal, but also takes into account the strength of these reactions.
[formula] where • n1 is the sum of the reactions with 3<SI<6, • n2 is the sum of the reactions with SI≧6 and • m is the number of tests against the peptide in question, whereby m≧15.
Consider TITQLLKRLHQWINEDCSTP [EP007], for which the “n1, sum of the reactions with 3<SI<6” value came out at 4 and the “n2, sum of the reactions with SI≧6” value is 2.

Staying with this test, now noted: peptide 10 μg/ml, 5 days; calculated from n1 (reactions with 3<SI<6), n2 (SI≧6) and m tests, m≧15.
On to CSGSWLRDVWDWICTVLTDF [EP008], for which the “IF (impact factor)” value is listed as 23.3.
Still for that read-out and setting: the same measure for “SSDLYLVTRHADVIP (Hepatitis C virus) [EP003]”: 23.2.
As for PLLESWKDPDYVPPVVHGCP [EP016], the “IF (impact factor)” value was 26.7.
In the case of SSSASQLSAPSLKATCTTHH [EP014], the “IF (impact factor)” value is listed as 23.3.
As for “REVSVAAEILRKSRKFPPAM (Hepatitis C virus) [EP015]”, the “IF (impact factor)” value is on record as 25.0.
“MWKCLIRLKPTLHGP (Hepatitis C virus) [EP004]”: the “IF (impact factor)” value is recorded as 24.1.
FTEVDGVRLHRYAPACKPLL [EP012]: the “IF (impact factor)” value is given as 28.1.
As to DVVCCSMSYTWTGALITPCA [EP017], the “IF (impact factor)” value is given as 23.3.
Take GAQITGHVKNGSMRIVGPKT [EP009]: the “IF (impact factor)” value was 23.3.
With “ARSLTPCTCGSSDLY (Hepatitis C virus) [EP002]”, the “IF (impact factor)” value is 27.6.
Consider “VLVDILAGYGAGVAG (Hepatitis C virus) [EP005]”, for which the “IF (impact factor)” value is listed as 24.1.
For the sequence “GPRLGVRATRKTSER (Hepatitis C virus) [EP001]”, the “IF (impact factor)” value is 24.0.
CPCQVPAPEFFTEVDGVRLH [EP011]: the “IF (impact factor)” value was 23.3.
As for EVTRVGDFHYVTGMTTDNVK [EP010], the “IF (impact factor)” value is 21.9.
In the case of TITQLLKRLHQWINEDCSTP [EP007], the “IF (impact factor)” value is recorded as 43.8.
TSMLTDPSHITAETAKRRLA [EP013]: the “IF (impact factor)” value was 26.7.
Same read-out and setting: then THYVPESDAAARVTQILSSL [EP006], with 26.7.

The same test, now with this note: worked example in text, m=16 tests.
Consider TITQLLKRLHQWINEDCSTP [EP007], for which the impact factor is 43.75.
